Data: US11767298B2, “Substituted benzimidazoles as inhibitors of transforming growth factor-β kinase” (Duke University, priority 2016, dated 2023)
“And” between values parts separate entries of the source, which are not always exact repeats. Identical values can stand only once. Like-named read-outs stand apart in the source and are kept apart here. Each block holds one molecule with its values, some of them ahead of it.

Columns and labels:
GFP-PfPK9 = GFP-PfPK9 (Plasmodium falciparum, UniProt Q8IEG4); test: ATP-competitive binding assay (ATP-sepharose pull-down, FLECS)
Description: Primary small-molecule screen. A small-molecule screen was performed similar to a previously reported fluorescence linked enzyme chemoproteomic strategy (FLECS). Briefly, HEK293-GFP-PfPK9 cells were grown in 182-cm^2 tissue culture flasks (Genesee Scientific) and harvested at ˜80% cell confluency. Before assays the culture medium was aspirated, cells were rinsed with ice cold PBS and then they were removed with a cell scraper. Cells were pelleted by centrifugation (2,000 rpm, 4° C., 2 min) and immediately lysed for assays. The pellet was suspended in buffer A (25 mM HEPES, pH 7.4, 150 mM NaCl, 60 mM MgCl2, 1 mM DTT) with 1 μM microcystin, 0.1% Triton X-100 plus a Roche Complete protease inhibitor tablet and then placed on ice for 30 min to facilitate lysis. The supernatant was collected after centrifugation (4,300 rpm, 4° C., 5 min) and used in subsequent screening and titrations experiments. For screening, the supernatant was added to ATP-sepharose beads (1:1) and incubated with agitation at 4° C. for at least 1 hr to allow binding. Following this incubation, the mixture was centrifuged, the ATP resin was washed with 9 column volumes of buffer A with 1 M NaCl and then 9 column volumes of buffer A. The ATP-sepharose medium was reconstituted as a 1:1 slurry with buffer A and then added to 96-well filter plates (50 μL/well) (Corning #3505) using a multichannel pipette (Rainin). The filter plate was on top of black 96-well catch plates (Corning #3915). An ATP dilution series (1-200 mM) was added to each plate as a positive control and DMSO was the negative control. Compounds and controls were all added to 50 μL per well in buffer A. For screening, compounds were tested in singlicate at 500 μM. The final DMSO concentration in every well was 5%. The fluorescence intensity in each well was measured on an EnVision system. Data analyses of screens were carried out in EXCEL (Microsoft, Corp.) and actives were identified as 2×background signal.
All screening positives that were verified with Western blot analysis were purchased from Enamine or Vitas-M laboratory. The purity of compounds 1-5 (shown below) was verified by high-resolution MS (Agilent). Compounds were tested in 8-point dose-response (0-500 μM) experiments in duplicate, essential as described above. The fluorescence intensity in each well was measured using an EnVision system. Dose-response analysis was performed with GraphPad Prism to acquire EC50 values. Determined EC50 values were used to calculate the observed PfPK9 Kd and reported values are the average of 2-3 independent experiments.
Stable cell line generation. The P. falciparum PK9 gene (PlasmoDB accession #PF3D7_1315100) was cloned into the pEGFP-C1 mammalian expression vector (Clontech) in frame with a […] GFP tag. For screening, HEK293 cells were transfected with the resulting PfPK9-pEGFP-C1 vector to generate HEK293-GFP-PfPK9 expressing cells using X-tremeGENE HP transfection reagent (Roche) per the manufacturer instructions. Briefly, the culture medium was replaced at 48 hours post-transfection with medium supplemented with 1 mg/mL G418 sulfate (Life Technologies) to select for stably transfected cells. Following stable cell selection, fluorescence activated cell sorting (FACS) was used to enrich for GFP-PfPK9 expressing cells. Subsequently, FACS sorted HEK293-GFP-PfPK9 cells were cultured with medium supplemented with 0.5 mg/mL G418 sulfate for all following experiments. Protein expression was verified by Western blot analysis probing for anti-GFP and by fluorescence intensity using an EnVision (PerkinElmer) system.
All 14 positive molecules were also tested for their binding affinity to PfPK9 using an optimized ATP-competitive binding assay. EC50 values ranging from low μM to low mM were observed and these EC50 values were used to derive dissociation constants as described previously. […]

TAK1-TAB1 = biological target: T1, TAK1-TAB1 (Homo sapiens, UniProt O43318); test: TAK1-TAB1 kinase assay ([32P]-ATP); assay type: biochemical; conditions: compared to 206 (FIG. 14)
T1 sequence (O43318 with tags, fused parts or gaps limits assumed): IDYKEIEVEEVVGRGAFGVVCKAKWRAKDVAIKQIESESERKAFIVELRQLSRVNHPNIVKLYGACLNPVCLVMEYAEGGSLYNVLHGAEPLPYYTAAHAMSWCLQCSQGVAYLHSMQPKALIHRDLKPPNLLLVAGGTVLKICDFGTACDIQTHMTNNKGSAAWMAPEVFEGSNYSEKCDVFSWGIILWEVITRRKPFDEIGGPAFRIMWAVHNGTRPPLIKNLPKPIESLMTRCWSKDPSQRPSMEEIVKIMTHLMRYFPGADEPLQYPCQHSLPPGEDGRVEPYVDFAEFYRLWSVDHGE
Description: Kinase Assay. […] In brief, TAK1-TAB1 (50 ng/well) was incubated with 5 μM ATP containing radiolabeled [^32P]-ATP in the presence of 300 μM substrate peptide ([…]) in a final volume of 40 μl in the presence of buffer (containing 50 mM Tris pH 7.5, 0.1 mM EGTA, 0.1% β-Mercaptoethanol, 10 mM magnesium acetate, 0.5 mM MnCl) and indicated compounds. The reaction was let go for 10 min and stopped with 10 μl concentrated H3PO4. The remaining activity was measured using a scintillation counter. Dose-response curves were repeated 3 times. For kinetic mechanistic studies, experiments were repeated two times and averaged.
A challenge in designing chemical biology probes lies in choosing an appropriate ligand for a protein target and developing chemistry that allows attachment of a linker without disrupting activity of the ligand. […] The focus was on modifying the aminobenzimidazole moiety.

P. berghei [1] = test: Liver stage parasite load, luciferase-expressing P. berghei in Huh7 cells; assay type: cell-based, Plasmodium berghei ANKA; conditions: Huh7 host cells, read-out: IC50 Liver state (Huh7)
Description: (§1) Cell-based anti-Plasmodium assays. For liver stage assays, 15,000 HepG2 or 8,000 Huh7 cells/well were added to 384-well microtiter plates using a multichannel pipette (Rainin). After 2 hours at 37° C., compounds (0-100 μM) were added to cells in duplicate or triplicate in a final concentration of 1% DMSO. DMSO was used as the negative control. Following compound incubation at 37° C. for ˜1 hr, harvested luciferase-expressing P. berghei ANKA sporozoites were added to the plates at a density of 3,000 sporozoites/well. P. berghei ANKA sporozoites were obtained from harvesting the salivary glands of infected A. stephensi mosquitoes. The plates were spun for 10 min at 1,000 rpm, and then incubated at 37° C. for ˜45 hrs. […] After ˜45 hours at 37° C., liver cell viability was assessed using CellTiter-Fluor (Promega) and then parasite load was determined using Bright-Glo (Promega). The relative fluorescence and luminescence signal intensity of each well was evaluated with an EnVision System. The luminescence signal in the presence of compounds was normalized to the negative control (DMSO). Dose-response analysis was performed with GraphPad Prism to yield the reported EC50 values.
(§2) Specifically, their ability to inhibit P. berghei infection in two human hepatoma cell lines (HepG2 and Huh7) as well as cytotoxicity against HepG2 and Huh7 cells was determined as described above. Liver cell cytotoxicity was evaluated with two different commercially available assays, one that tests for intracellular protease activity with a fluorescence reporter and another that relies on the luminescent detection of total ATP.

Huh7 cells = test: Huh7 cell viability / cytotoxicity; assay type: cell-based, human
Description: as §1, with “After 2 hours at 37° C., compounds (0-100 μM) were added to cells in duplicate or triplicate in a final concentration of 1% DMSO.” left out
as §2

P. berghei [2] = test: Liver stage parasite load, luciferase-expressing P. berghei in HepG2 cells; assay type: cell-based, Plasmodium berghei ANKA; conditions: HepG2 host cells
Description: as §1
(§3) Anti-Plasmodium activity was evaluated in the parasite's liver stage using a previously reported high-throughput assay. In this assay, luciferase-expressing P. berghei (murine) parasites are used to infect human hepatoma cells (HepG2) and parasite load is assessed with a luminometer subsequent to evaluating HepG2 viability using a commercially available quantification kit that measures intracellular protease activity.
as §2

HepG2 cells = test: HepG2 cell viability / cytotoxicity; assay type: cell-based, human
Description: as §1, §3, §2

[3] = GFP-PfPK9, Kd calculated from EC50 of ATP pull-down dose-response, read-out: Kd, app
[4] = Plasmodium berghei, Huh-7, parasite load
[5] = Plasmodium berghei, HepG2, parasite load

Sequence of GFP-PfPK9 (Q8IEG4 entry or part of it): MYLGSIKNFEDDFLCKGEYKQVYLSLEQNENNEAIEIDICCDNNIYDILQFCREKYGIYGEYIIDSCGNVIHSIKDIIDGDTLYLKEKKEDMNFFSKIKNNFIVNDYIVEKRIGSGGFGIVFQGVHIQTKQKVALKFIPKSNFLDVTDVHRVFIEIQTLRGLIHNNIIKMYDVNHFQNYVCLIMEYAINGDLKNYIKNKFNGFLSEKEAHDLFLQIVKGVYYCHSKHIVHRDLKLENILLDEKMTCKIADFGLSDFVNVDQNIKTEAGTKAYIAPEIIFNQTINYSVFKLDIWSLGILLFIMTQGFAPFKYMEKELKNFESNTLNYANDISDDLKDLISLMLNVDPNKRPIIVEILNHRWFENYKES

Compound: Nc1ncnc2c1ncn2[C@@H]1O[C@H](COP(=O)(O)OP(=O)(O)OP(=O)(O)O)[C@@H](O)[C@H]1O [ATP, reference compound]
Kd (GFP-PfPK9; native substrate, read-out: apparent Kd of ATP for GFP-PfPK9): ~400 µM

activity / potency in TAK1 kinase assay (TAK1-TAB1): did not show activity
Compound: NC(=O)c1cccc(C(=O)/N=c2\[nH]c3cc(Br)ccc3s2)c1 [HS-232]

activity / potency in TAK1 kinase assay (TAK1-TAB1): slight reduction in potency
Compound: CCCn1/c(=N/C(=O)c2cccc(C(N)=O)c2)[nH]c2ccc(/C=C/C(=O)O)cc21 [HS-233]

activity / potency in TAK1 kinase assay (TAK1-TAB1): slight reduction in potency
Compound: CCCn1/c(=N/C(=O)c2cccc(C(N)=O)c2)[nH]c2cc(/C=C/C(=O)O)ccc21 [HS-234]

activity / potency in TAK1 kinase assay (TAK1-TAB1): slight reduction in potency
Compound: CCCn1/c(=N/C(=O)c2cccc(C(N)=O)c2)[nH]c2cc(/C=C/C(=O)OC)ccc21 [HS-235]

Compound: CCCn1c(NC(=O)c2nn(-c3ccccc3)cc2OC)nc2ccccc21 [compound 2]
Kd (GFP-PfPK9; [3]): ~7 µM and 7 µM
IC50 (P. berghei [1]; [4]): 0.09 µM
cytotoxic effect on cell viability vs DMSO control (Huh7 cells; 30 μM): significant cytotoxic effect
IC50 (P. berghei [2]; [5]): 4.5 µM
cytotoxic effect on cell viability vs DMSO control (HepG2 cells; HepG2, 30 μM): significant cytotoxic effect

Compound: CCCn1c(NC(=O)c2cncn2-c2ccc(F)cc2)nc2ccccc21 [compound 3]
Kd (GFP-PfPK9; [3]): 0.6 µM
IC50 (P. berghei [1]; [4]): 4 µM
IC50 (P. berghei [2]; [5]): 7.3 µM
cytotoxicity in HepG2 cells (HepG2 cells; concentration not given): moderate cytotoxicity

Compound: O=C(Nc1cccc2cnccc12)C1CCCN(c2cnccn2)C1 (stereo not drawn) [compound 4]
Kd (GFP-PfPK9; [3]): 3.2 µM
IC50 (P. berghei [1]; [4]): 33 µM
IC50 (P. berghei [1]; parasite load): 33.3 µM
effect on liver cell viability (Huh7 cells; concentrations up to 200 μM): neither compound 4 or 5 had any significant effects on cell viability
IC50 (P. berghei [2]; [5]): 55 µM
IC50 (P. berghei [2]; parasite load): 54.5 µM
effect on liver cell viability (HepG2 cells; HepG2, concentrations up to 200 μM): neither compound 4 or 5 had any significant effects on cell viability
